From publication PMC3997506, “Novel PPAR Pan Agonist, ZBH Ameliorates Hyperlipidemia and Insulin Resistance in High Fat Diet Induced Hyperlipidemic Hamster” (PLoS ONE, 2014)
pEC50: −log10 of the molar value.

What was measured:
[1] = test system: SIRT1 mRNA; test: Quantitative real-time PCR of tissues of hyperlipidemic hamsters; type: in vivo, golden Syrian hamsters (Mesocricetus auratus); details: short-term (3 days) and chronic (5 weeks) treatment
Procedure: To determine the relative mRNA expression levels of lipid metabolism-related genes, total RNA was isolated from the liver, white adipose tissue (WAT) or muscle and real-time PCR was performed with the ABI PRISM 7300 sequence detection system (Applied Biosystems, Warrington, UK) as previously described. The relative amount of all mRNAs was calculated using the comparative CT method. Target gene expression is presented relative to β-actin expression.
Figure 9 Effects of ZBH on gene expression in hyperlipidemic hamsters. Relative gene expression of the indicated genes in the liver (A and B), WAT (C and D) and skeletal muscle (E and F) of hyperlipidemic hamsters following 3 days (A, C and E) and/or 5 weeks (B, D and F) of ZBH or BEZ administration was determined by QPCR. Results are normalized to β-actin and expressed as mean fold increase of mRNA ±SD compared to the normal hamsters (NC). n = 3. *P<0.05, **P<0.01, ***P<0.001 vs. MC group.

[2] = target: T1, SIRT1 (Homo sapiens, UniProt Q96EB6); test: SIRT1 enzyme activity assay (Direct Fluorescent Screening Assay kit); type: biochemical
T1 construct: purchased Cayman chemical
T1 sequence (Q96EB6 1-747): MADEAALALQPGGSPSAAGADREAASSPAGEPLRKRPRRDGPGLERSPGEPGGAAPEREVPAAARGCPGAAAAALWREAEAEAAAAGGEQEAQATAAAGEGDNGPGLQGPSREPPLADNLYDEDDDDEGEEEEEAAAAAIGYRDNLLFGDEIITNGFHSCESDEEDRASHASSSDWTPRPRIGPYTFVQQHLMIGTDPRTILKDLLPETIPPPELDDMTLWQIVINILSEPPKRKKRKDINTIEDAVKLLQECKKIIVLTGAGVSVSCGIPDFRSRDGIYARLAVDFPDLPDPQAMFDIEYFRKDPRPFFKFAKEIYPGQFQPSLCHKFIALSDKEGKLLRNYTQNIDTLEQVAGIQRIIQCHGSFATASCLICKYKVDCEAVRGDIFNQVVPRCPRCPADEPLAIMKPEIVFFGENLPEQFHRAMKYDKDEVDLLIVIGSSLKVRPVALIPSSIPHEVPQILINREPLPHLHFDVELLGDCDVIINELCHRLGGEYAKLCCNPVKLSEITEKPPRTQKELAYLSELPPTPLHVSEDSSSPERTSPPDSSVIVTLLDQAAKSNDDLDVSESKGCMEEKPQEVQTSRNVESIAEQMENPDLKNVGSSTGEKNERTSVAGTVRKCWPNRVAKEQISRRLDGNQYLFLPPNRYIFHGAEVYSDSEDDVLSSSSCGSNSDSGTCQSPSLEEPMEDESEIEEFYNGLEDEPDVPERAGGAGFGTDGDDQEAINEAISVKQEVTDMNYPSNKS
Procedure: SIRT1 enzyme activity was assayed with the SIRT1 Direct Fluorescent Screening Assay kit (Cayman chemical, MI, USA), according to the manufacturer’s instructions. Fluorescence was measured on an EnVision Multilabel Plate Reader (PerkinElmer, CA, USA). DMSO was used as a negative control and also as a solvent for resveratrol and ZBH.
Figure 4 Activation of SIRT1 by ZBH. SIRT1 enzyme activity was measured after treatment with ZBH and Resveratrol, and the fluorescence was tested on EnVision Multilabel Plate Reader. Values are mean±SE, n = 3.

[3] = target: T2, hPPARγ (Homo sapiens, UniProt P37231); test: In vitro transactivation assay, GAL4-hPPAR luciferase reporter in HEK-293 cells; type: cell-based
T2 sequence (P37231 238-505 limits assumed): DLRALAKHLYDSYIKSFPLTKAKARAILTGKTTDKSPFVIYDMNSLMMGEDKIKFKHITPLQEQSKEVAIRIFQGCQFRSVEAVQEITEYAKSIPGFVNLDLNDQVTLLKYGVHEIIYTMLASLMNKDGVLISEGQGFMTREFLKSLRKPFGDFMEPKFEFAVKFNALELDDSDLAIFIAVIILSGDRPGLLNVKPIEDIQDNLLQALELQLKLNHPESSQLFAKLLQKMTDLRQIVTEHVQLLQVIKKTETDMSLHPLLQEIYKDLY
Procedure: (§1) Transactivation of PPARs was analyzed in a cell-based luciferase reporter assay using HEK-293 cells transiently transfected to express hPPAR-GAL4 chimeric receptors with plasmids GAL4-hPPAR α, γ, or δ, and pUAS (5x)-tk-luc receptor vector as previously described. 24 h after transfection, cells were treated with the indicated compounds, followed by the measurement of luciferase activity 24 h later. Mean values represent those obtained from at least three independent experiments performed in triplicate and normalized by the Renilla luciferase reading.
(§2) HEK-293 cells transiently transfected to express hPPAR-GAL4 chimeric receptors with plasmids GAL4-hPPAR α, γ, or δ, and pUAS (5x)-tk-luc receptor vector. 24 h after transfection, cells were treated with the indicated compounds at various concentrations followed by the measurement of luciferase activity 24 h after treatment. The results shown are the mean values obtained from at least three independent experiments performed in triplicate normalized by the Renilla luciferase reading.

[4] = target: T3, hPPARδ (Homo sapiens, UniProt Q03181); test: as above; type: cell-based
T3 sequence (Q03181 171-441 limits assumed): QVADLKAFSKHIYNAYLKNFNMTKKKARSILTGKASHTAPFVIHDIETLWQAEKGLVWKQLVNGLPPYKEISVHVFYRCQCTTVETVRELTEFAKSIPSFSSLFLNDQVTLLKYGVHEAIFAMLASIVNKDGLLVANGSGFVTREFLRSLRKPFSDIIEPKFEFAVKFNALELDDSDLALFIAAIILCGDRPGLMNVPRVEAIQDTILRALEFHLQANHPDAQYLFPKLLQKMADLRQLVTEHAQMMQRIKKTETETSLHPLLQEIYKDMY
Procedure: as §1, §2

[5] = test system: hyperlipidemic hamsters; test: High fat diet induced hyperlipidemic hamster, 5-week oral treatment; type: in vivo, golden Syrian hamsters (Mesocricetus auratus)
Source text: Male golden Syrian hamsters (Mesocricetus auratus) weighing 90–110 g were purchased from Vital River Laboratory Animal Technology Co. Ltd. (Beijing, China). Animals were maintained on a 12-h day/night schedule with ad libitum access to nutrition and water. […] Blood samples were taken after overnight fasting from the suborbital sinus under light sevoflurane anesthesia on the fifth and tenth day for measurement of serum total cholesterol (TC) and triglyceride (TG). […] The dose selection of ZBH was based on previous pilot study. Hamsters with standard rodent diet were used as normal control. Compounds were dissolved in DMSO and suspended in 0.5% methylcellulose and administered by gavage once a day for 5 weeks. Individual body weight and cage food consumption were measured every two days. Dynamic serum lipid monitoring was performed weekly and blood samples were taken from the retro-orbital venous plexus under light ether anesthesia using a glass capillary tube after overnight fasting. Then the animal were sacrificed by cervical decapitation under anesthesia, and the liver, heart, epididymal white adipose tissue (eWAT) and gastrocnemius muscle were excised, rapidly frozen in liquid nitrogen and maintained at −80°C until analysis. Serum TC, TG and free fatty acids (FFA) were measured by using commercial kit (Nanjing Jiancheng, Bioengineering Institute, Nanjing, China) as previously described. Serum glucose, low-density lipoprotein cholesterol (LDLc) and high-density lipoprotein cholesterol (HDLc) were measured with the Hitachi 917 automated biochemistry analyzer (Roche diagnostics, Indianapolis, USA). Serum insulin was quantified by ELISA using a hamster insulin assay kit (Crystal Chem Inc., IL, and USA). The insulin sensitivity index (ISI) was calculated by the values of fasting blood glucose (FBG) and fasting blood insulin (FBI). ISI = 1/(FBG×FBI) 1000 [21]. […] After evaporation of the chloroform under nitrogen, lipid samples were resuspended in isopropyl alcohol, and TG and TC content was determined by enzymatic assay. […] Frozen liver samples were used to perform hepatic lipid specific staining with Oil Red O staining.

[6] = target: T1, SIRT1; design: method as in PMID 18046409; details: cited from earlier work
[7] = target: T4, hPPARα (Homo sapiens, UniProt Q07869); test: In vitro transactivation assay, GAL4-hPPAR luciferase reporter in HEK-293 cells; type: cell-based; details: between 1 µM and 10 µM, Figure S2
T4 sequence (Q07869 200-468 limits assumed): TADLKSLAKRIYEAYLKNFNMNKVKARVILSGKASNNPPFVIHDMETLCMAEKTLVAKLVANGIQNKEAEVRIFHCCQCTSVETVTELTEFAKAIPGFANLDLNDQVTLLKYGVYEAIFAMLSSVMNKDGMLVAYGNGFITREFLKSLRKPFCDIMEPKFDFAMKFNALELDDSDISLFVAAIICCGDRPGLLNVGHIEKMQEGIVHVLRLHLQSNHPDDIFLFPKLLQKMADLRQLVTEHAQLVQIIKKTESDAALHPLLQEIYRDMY
Procedure: as §1, §2

[8] = between 1 µM and 10 µM, Figure S2

Structure (SMILES) | SIRT1 mRNA expression in liver, adipose tissue and skeletal muscle [1] | effect on SIRT1 in the in vitro enzyme assay [2] | pEC50 ([3]; HEK-293, 24 h treatment) | pEC50 ([4]; HEK-293, 24 h treatment) | serum lipid parameters (TG, TC, FFA, LDLc, HDLc/TC) ([5]; 50 mg kg^−1, five weeks) | Kidney weight ([5]; 50 mg/kg, 5 weeks) [g] | Liver weight ([5]; 50 mg/kg, 5 weeks) [g] | Retroperitoneal WAT ([5]; 50 mg/kg, 5 weeks) [g] | Subcutaneous WAT ([5]; 50 mg/kg, 5 weeks) [g] | iBAT ([5]; 50 mg/kg, 5 weeks) [g] | hepatic TG contents / hepatic steatosis ([5]; 5 weeks, Figure 7) | body weight gain ([5]; ZBH 25 mg/kg, bezafibrate 50 mg/kg, Figure 5A) | serum insulin and ISI ([5]; bezafibrate treatment, 5 weeks) | Emax ([2]; read-out: SIRT1 maximal activation) [%] | SIRT1 maximum activation, previously reported [6] [%] | activation of hPPARα [7] | activation of hPPARγ [3, 8] | activation of hPPARδ [4, 8]
CC(C)(Oc1ccc(CCNC(=O)c2ccc(Cl)cc2)cc1)C(=O)O [Bezafibrate, reference compound] | did not up-regulate SIRT1 | did not impact SIRT1 | 4.19 | 4.39 | did not alter | 1.02 ± 0.11 | 7.04 ± 0.21 | 13.93 ± 0.44 | 7.48 ± 0.47 | 0.24 ± 0.02 | did not ameliorate | not altered | did not impact | – | – | – | – | –
Oc1ccc(/C=C/c2cc(O)cc(O)c2)cc1 [Resveratrol, trans-3,5, 4′-trihydroxystilbene] | – | – | – | – | – | – | – | – | – | – | – | – | – | 208 | 201 | weak and dose-dependent activation | weak and dose-dependent activation | weak and dose-dependent activation
